Here are results for six molecules from ChEMBL document CHEMBL1136903, “Spiroimidazolidinone NPC1L1 inhibitors. 1: Discovery by 3D-similarity-based virtual screening” (Bioorg Med Chem Lett, 2009).

This assay has as its target T1, NPC1-like intracellular cholesterol transporter 1 (Homo sapiens, UniProt Q9UHC9).
T1 sequence (Q9UHC9 whole entry): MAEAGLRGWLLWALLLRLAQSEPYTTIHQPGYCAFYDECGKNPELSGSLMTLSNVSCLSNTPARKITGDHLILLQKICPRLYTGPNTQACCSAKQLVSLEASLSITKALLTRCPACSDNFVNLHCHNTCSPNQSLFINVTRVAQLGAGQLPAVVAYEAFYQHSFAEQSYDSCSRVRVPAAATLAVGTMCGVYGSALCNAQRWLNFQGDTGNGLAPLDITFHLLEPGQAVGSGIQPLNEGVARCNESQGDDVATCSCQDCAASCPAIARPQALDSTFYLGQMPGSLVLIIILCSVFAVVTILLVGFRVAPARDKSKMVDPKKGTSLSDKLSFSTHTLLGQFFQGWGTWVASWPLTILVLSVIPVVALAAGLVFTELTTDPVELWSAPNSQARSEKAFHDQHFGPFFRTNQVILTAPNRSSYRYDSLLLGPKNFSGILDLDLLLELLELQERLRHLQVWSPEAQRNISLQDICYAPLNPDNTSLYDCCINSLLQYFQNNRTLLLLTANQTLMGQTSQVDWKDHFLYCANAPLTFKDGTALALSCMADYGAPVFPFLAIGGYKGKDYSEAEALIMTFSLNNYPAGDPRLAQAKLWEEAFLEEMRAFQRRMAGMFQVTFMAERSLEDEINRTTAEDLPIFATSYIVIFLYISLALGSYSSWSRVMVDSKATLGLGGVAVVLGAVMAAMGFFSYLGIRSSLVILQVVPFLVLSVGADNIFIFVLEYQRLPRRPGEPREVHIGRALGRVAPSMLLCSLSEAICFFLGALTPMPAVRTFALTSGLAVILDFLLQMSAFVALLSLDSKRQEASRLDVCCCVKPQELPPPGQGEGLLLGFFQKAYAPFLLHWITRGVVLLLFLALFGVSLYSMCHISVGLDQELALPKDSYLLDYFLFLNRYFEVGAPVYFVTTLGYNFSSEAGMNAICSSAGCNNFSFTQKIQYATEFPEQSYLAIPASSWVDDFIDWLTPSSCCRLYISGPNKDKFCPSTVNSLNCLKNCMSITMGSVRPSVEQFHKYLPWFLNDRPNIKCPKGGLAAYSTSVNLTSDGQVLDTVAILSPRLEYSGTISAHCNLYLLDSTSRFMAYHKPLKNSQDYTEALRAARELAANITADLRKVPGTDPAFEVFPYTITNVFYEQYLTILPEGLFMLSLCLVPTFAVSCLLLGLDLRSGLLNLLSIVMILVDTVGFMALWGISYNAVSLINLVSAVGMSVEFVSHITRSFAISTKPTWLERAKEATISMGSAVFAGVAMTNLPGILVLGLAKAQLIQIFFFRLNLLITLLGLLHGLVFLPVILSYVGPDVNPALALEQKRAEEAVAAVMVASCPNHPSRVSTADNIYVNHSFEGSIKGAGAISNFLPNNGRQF
As to the kind of experiment: Displacement of [35S](2S,3S,4S,5R,6S)-6-(4-((2S,3R)-3-((S)-3-(4-fluorophenyl)-3-hydroxypropyl)-1-(4-(3-(methylsulfonamido)prop-1-ynyl)phenyl)-4-oxoazetidin-2-yl)phenoxy)-3,4,5-trihydroxytetrahydro-2H-pyran-2-carboxylic acid from human recombinant NPC1L1 expressed in HEK293 cells. The format is cell-based. On the technique in general: Displacement assays read how much labelled ligand stays bound in the presence of the test substance.

The IC50 is the concentration needed to halve the response being measured.

As to `CC(C)CNC(=O)CN1CN(c2ccccc2)C2(CCN(C(=O)c3ccc(C(C)(C)C)cc3)CC2)C1=O`, the IC50 stood at 4.4 µM.

Regarding `Cc1ccc(CCC2CCC(CNC(=O)c3cn[nH]c3)CN2C(=O)OCc2ccccc2)cc1` (stereo unspecified), the IC50 stood at 81 µM. Consider `CC(C)(C)c1ccc(C(=O)NS(=O)(=O)N2CC3(CCN(C(=O)OCCc4ccccc4)CC3)c3ccccc32)cc1`, for which the half-inhibitory concentration (IC50) turned out to be 79 µM.

With `CC1(C(=O)O)COc2ccc(CCN(CCCCC3CCCCC3)C(=O)Nc3ccc(SC(F)(F)F)cc3)cc2O1` (stereo unspecified), the IC50 is 4.6 µM.

For the molecule `O=C(c1cccc2ccccc12)N1CC(C(=O)N2CCC3(C=Cc4ccccc43)CC2)CC(c2ccccc2)C1` (stereo unspecified), the IC50 stood at 0.39 µM. As for `Cn1c(N(Cc2ccc(OCCCC(=O)O)cc2)[C@H]2CC[C@H](C(C)(C)C)CC2)nc2cc(OC3CCCC3)ccc21`, the figure is 7.4 µM.
